Measurements as given in ChEMBL document CHEMBL4219059, “Synthesis and biological evaluation of cyclopeptide GG-8-6 and its analogues as anti-hepatocellular carcinoma agents” (Bioorg Med Chem, 2018).
One block for each compound: values may come before it. Active and inactive are the calls of the source. The calls are words filed in the database; no cut-off is given here. Peptide text beside a SMILES is read from it.

Key:
HepG2 = test: Antiproliferative activity against human HepG2 cells after 24 hrs by MTT assay; assay type: functional, cell-based; conditions: HepG2, 24 h
SMMC-7721 [1] = test: Antiproliferative activity against human SMMC7721 cells after 24 hrs by MTT assay; assay type: functional, cell-based; conditions: SMMC-7721, 24 h
SMMC-7721 [2] = test: Induction of apoptosis in human SMMC7721 cells assessed as late apoptotic cells at 20 uM after 24 hrs by Annexin V-FITC/propidium iodide staining based flow cytometry (reference value: 0.7%); assay type: functional
SMMC-7721 [3] = test: Induction of apoptosis in human SMMC7721 cells assessed as increase in cleaved PARP protein expression after 24 hrs by Western blot method; assay type: functional, cell-based
Mus musculus [4] = test: Toxicity in Balb/c nude mouse xenografted with human SMMC7721 cells assessed as body weight level at 16 mg/kg, ip for 32 days (reference value: 25.4 +/- 1.8 g); assay type: organism-based; conditions: in vivo, 768 h
SMMC-7721 [5] = test: Induction of apoptosis in human SMMC7721 cells assessed as chromatin condensation at 10 to 30 uM after 24 hrs by DAPI staining based laser confocal microscopy; assay type: functional, cell-based
SMMC-7721 [6] = test: Cell cycle arrest in human SMMC7721 cells assessed as G2/M phase accumulation at 30 uM after 24 hrs by propidium iodide staining based flow cytometry relative to control; assay type: functional
Mus musculus [7] = test: Toxicity in Balb/c nude mouse xenografted with human SMMC7721 cells assessed as body weight level at 40 mg/kg, ip for 32 days (reference value: 25.4 +/- 1.8 g); assay type: organism-based; conditions: in vivo, 768 h
SMMC-7721 [8] = test: Antitumor activity against human SMMC7721 cells xenografted in Balb/c nude mouse assessed as tumor growth inhibition at 8 mg/kg, ip for 32 days relative to control; assay type: functional; conditions: SMMC-7721, ip, 768 h, read-out: TGI
SMMC-7721 [9] = test: In vivo induction of apoptosis in human SMMC7721 cells xenografted in Balb/c nude mouse assessed as activation of caspase-3 dosed intraperitoneally for 32 days by IHC analysis; assay type: functional, organism-based
SMMC-7721 [10] = test: In vivo induction of apoptosis in human SMMC7721 cells xenografted in Balb/c nude mouse at 8 to 40 mg/kg, ip for 32 days by TUNEL assay; assay type: functional, organism-based
SMMC-7721 [11] = test: Antitumor activity against human SMMC7721 cells xenografted in Balb/c nude mouse assessed as tumor growth inhibition at 16 mg/kg, ip for 32 days relative to control; assay type: functional; conditions: SMMC-7721, ip, 768 h, read-out: TGI
SMMC-7721 [12] = test: Cell cycle arrest in human SMMC7721 cells assessed as G2/M phase accumulation at 20 uM after 24 hrs by propidium iodide staining based flow cytometry relative to control; assay type: functional
SMMC-7721 [13] = test: Induction of apoptosis in human SMMC7721 cells assessed as increase in cleaved caspase-9 protein expression after 24 hrs by Western blot method; assay type: functional, cell-based
SMMC-7721 [14] = test: Induction of apoptosis in human SMMC7721 cells assessed as early apoptotic cells at 30 uM after 24 hrs by Annexin V-FITC/propidium iodide staining based flow cytometry (reference value: 2%); assay type: functional
SMMC-7721 [15] = test: Induction of apoptosis in human SMMC7721 cells assessed as late apoptotic cells at 10 uM after 24 hrs by Annexin V-FITC/propidium iodide staining based flow cytometry (reference value: 0.7%); assay type: functional
SMMC-7721 [16] = test: Induction of apoptosis in human SMMC7721 cells assessed as early apoptotic cells at 20 uM after 24 hrs by Annexin V-FITC/propidium iodide staining based flow cytometry (reference value: 2%); assay type: functional
SMMC-7721 [17] = test: Antitumor activity against human SMMC7721 cells xenografted in Balb/c nude mouse assessed as tumor growth inhibition at 40 mg/kg, ip for 32 days relative to control; assay type: functional; conditions: SMMC-7721, ip, 768 h, read-out: TGI
SMMC-7721 [18] = test: Induction of morphological changes in tumor of human SMMC7721 cells xenografted Balb/c nude mouse assessed as appearance of shrunken nuclei at 40 mg/kg, ip for 32 days by hematoxylin/eosin staining based microscopic analysis; assay type: functional, organism-based
SMMC-7721 [19] = test: Induction of morphological changes in tumor of human SMMC7721 cells xenografted Balb/c nude mouse assessed as reduction in number of nuclei at 40 mg/kg, ip for 32 days by hematoxylin/eosin staining based microscopic analysis; assay type: functional, organism-based
SMMC-7721 [20] = test: Antitumor activity against human SMMC7721 cells xenografted in Balb/c nude mouse assessed as tumor growth inhibition dosed intraperitoneally for 32 days; assay type: functional, organism-based
Mus musculus [21] = test: Toxicity in Balb/c nude mouse xenografted with human SMMC7721 cells assessed as body weight level at 8 mg/kg, ip for 32 days (reference value: 25.4 +/- 1.8 g); assay type: organism-based; conditions: in vivo, 768 h
SMMC-7721 [22] = test: Induction of apoptosis in human SMMC7721 cells assessed as early apoptotic cells at 10 uM after 24 hrs by Annexin V-FITC/propidium iodide staining based flow cytometry (reference value: 2%); assay type: functional
SMMC-7721 [23] = test: Induction of apoptosis in human SMMC7721 cells assessed as late apoptotic cells at 30 uM after 24 hrs by Annexin V-FITC/propidium iodide staining based flow cytometry (reference value: 0.7%); assay type: functional
SMMC-7721 [24] = test: Induction of apoptosis in human SMMC7721 cells assessed as increase in cleaved caspase-8 protein expression after 24 hrs by Western blot method; assay type: functional, cell-based
SMMC-7721 [25] = test: Induction of apoptosis in human SMMC7721 cells assessed as increase in cleaved caspase-3 protein expression after 24 hrs by Western blot method; assay type: functional, cell-based
SMMC-7721 [26] = test: Induction of morphological changes in tumor of human SMMC7721 cells xenografted Balb/c nude mouse induction of nuclei and cytoplasm non-uniform distribution at 40 mg/kg, ip for 32 days by hematoxylin/eosin staining based microscopic analysis; assay type: functional, organism-based
SMMC-7721 [27] = test: Cell cycle arrest in human SMMC7721 cells assessed as G2/M phase accumulation at 10 uM after 24 hrs by propidium iodide staining based flow cytometry relative to control; assay type: functional

IC50 (HepG2): 40.5 µM | IC50 (SMMC-7721 [1]): 47.4 µM
SMILES: CC[C@H](C)[C@@H]1NC(=O)[C@@H]2CCCN2C(=O)[C@H](CC(C)C)NC(=O)[C@H](C(C)C)NC(=O)[C@H](CC(C)C)NC(=O)[C@H](C)NC(=O)[C@H](CC(C)C)NC(=O)[C@H](CC(C)C)NC(=O)[C@H](CC(C)C)NC1=O (cyclo(ALVLPILLL))

IC50 (HepG2): > 100 µM | IC50 (SMMC-7721 [1]): 42.8 µM
SMILES: CC[C@H](C)[C@@H]1NC(=O)[C@@H]2CCCN2C(=O)[C@H](CC(C)C)NC(=O)[C@H](C(C)C)NC(=O)[C@H](CC(C)C)NC(=O)[C@H](C(C)C)NC(=O)[C@H](CC(C)C)NC(=O)[C@H](C)NC(=O)[C@H](CC(C)C)NC1=O (cyclo(ALVLVLPIL))

Continued, compound first:

SMILES: CC[C@H](C)[C@@H]1NC(=O)[C@@H]2CCCN2C(=O)[C@H](CC(C)C)NC(=O)[C@H](C)NC(=O)[C@H](CC(C)C)NC(=O)[C@H](C(C)C)NC(=O)[C@H](CC(C)C)NC(=O)[C@H](CC(C)C)NC(=O)[C@H](CC(C)C)NC1=O (cyclo(ALPILLLVL))
IC50 (HepG2): 29.9 µM | IC50 (SMMC-7721 [1]): 29.9 µM

SMILES: CC[C@H](C)[C@@H]1NC(=O)[C@@H]2CCCN2C(=O)[C@H](CC(C)C)NC(=O)[C@H](C(C)C)NC(=O)[C@H](CC(C)C)NC(=O)[C@H](C(C)C)NC(=O)[C@H](CC(C)C)NC(=O)[C@H](CC(C)C)NC(=O)[C@H](C)NC1=O (cyclo(ALLVLVLPI))
IC50 (HepG2): > 100 µM | IC50 (SMMC-7721 [1]): 29.8 µM

SMILES: CC[C@H](C)[C@@H]1NC(=O)[C@@H]2CCCN2C(=O)[C@H](CC(C)C)NC(=O)[C@H](C(C)C)NC(=O)[C@H](CC(C)C)NC(=O)[C@H](C(C)C)NC(=O)[C@H](CC(C)C)NC(=O)[C@H](CC(C)C)NC(=O)[C@H](CC(C)C)NC1=O (cyclo(ILLLVLVLP))
Activity (SMMC-7721 [2]): 2.8% | Activity (SMMC-7721 [3]): Dose-dependent effect | Activity (Mus musculus [4]): 22.7 g | Activity (SMMC-7721 [5]): Active | Activity (SMMC-7721 [6]): 12% | Activity (Mus musculus [7]): 21.1 g | inhibition in vivo at 8 mg/kg (SMMC-7721 [8]): 26.1% | Activity (SMMC-7721 [9]): Dose-dependent effect | Activity (SMMC-7721 [10]): Dose-dependent effect | inhibition in vivo at 16 mg/kg (SMMC-7721 [11]): 57% | Activity (SMMC-7721 [12]): 9.6% | Activity (SMMC-7721 [13]): Dose-dependent effect | Activity (SMMC-7721 [14]): 84.5 - 86.5% | Activity (SMMC-7721 [15]): 0.4% | Activity (SMMC-7721 [16]): 36.6 - 38.6% | inhibition in vivo at 40 mg/kg (SMMC-7721 [17]): 67.9% | Activity (SMMC-7721 [18]): Active | Activity (SMMC-7721 [19]): Active | TGI (SMMC-7721 [20]): Dose-dependent effect | IC50 (HepG2): 12.2 µM | Activity (Mus musculus [21]): 22.2 g | Activity (SMMC-7721 [22]): 1.6 - 3.6% | Activity (SMMC-7721 [23]): 2.6% | Activity (SMMC-7721 [24]): Dose-dependent effect | Activity (SMMC-7721 [25]): Dose-dependent effect | IC50 (SMMC-7721 [1]): 6.38 µM | Activity (SMMC-7721 [26]): Active | Activity (SMMC-7721 [27]): 5.9%

SMILES: CC[C@H](C)[C@@H]1NC(=O)[C@@H]2CCCN2C(=O)[C@H](CC(C)C)NC(=O)[C@H](C(C)C)NC(=O)[C@H](C)NC(=O)[C@H](C(C)C)NC(=O)[C@H](CC(C)C)NC(=O)[C@H](CC(C)C)NC(=O)[C@H](CC(C)C)NC1=O (cyclo(AVLPILLLV))
IC50 (HepG2): 38.6 µM | IC50 (SMMC-7721 [1]): 38.9 µM

SMILES: CC[C@H](C)[C@@H]1NC(=O)[C@@H]2CCCN2C(=O)[C@H](CC(C)C)NC(=O)[C@H](C(C)C)NC(=O)[C@H](CC(C)C)NC(=O)[C@H](C(C)C)NC(=O)[C@H](CC(C)C)NC(=O)[C@H](CC(C)C)NC1=O (cyclo(ILLVLVLP))
IC50 (HepG2): 51.7 µM | IC50 (SMMC-7721 [1]): 73.9 µM
